Test results published in patent publication US7825112B2, “2-carbamide-4-phenylthiazole derivatives, preparation thereof and therapeutic use thereof” (sanofi-aventis, priority 2006, dated 2010).

Tests used:
human CCR2b receptor = molecular target: T1, human CCR2b receptor (Homo sapiens, UniProt P41597); assay: [125I]-MCP-1 binding displacement on CHO-K1-CCR2B cells (inhibiting activity on cells expressing the human CCR2b receptor); conditions: iodinated MCP-1 0.1 nM, 1 h 30 minutes at ambient temperature, read-out: Cl50 (concentration which inhibited 50% of the activity of the CCR2b receptor)
T1 construct: host or cells: CHO-K1
T1 sequence (P41597 1-360 isoform P41597-2): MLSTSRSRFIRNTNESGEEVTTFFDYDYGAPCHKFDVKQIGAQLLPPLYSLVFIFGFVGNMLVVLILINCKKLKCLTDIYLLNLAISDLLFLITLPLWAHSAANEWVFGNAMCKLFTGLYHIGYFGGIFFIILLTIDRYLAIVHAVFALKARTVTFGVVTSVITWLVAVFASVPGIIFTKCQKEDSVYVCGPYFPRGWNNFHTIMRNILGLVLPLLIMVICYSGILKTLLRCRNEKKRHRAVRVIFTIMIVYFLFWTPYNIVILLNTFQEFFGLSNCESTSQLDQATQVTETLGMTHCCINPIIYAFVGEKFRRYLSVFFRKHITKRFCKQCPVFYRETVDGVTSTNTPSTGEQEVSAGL
Method: The inhibiting activity of the compounds according to the invention was measured on cells expressing the human CCR2b receptor. The concentration of natural hMCP-1 agonist which inhibited 50% (Cl50) of the activity of the CCR2b receptor was 0.57 nM.
The following are brought into contact for 1 h 30 minutes at ambient temperature, in Millipore GF/B filter plates (ref. MAFBNOB 10 or 50): 50 μl of compound at 3×10^−5 M in the reaction buffer or cold MCP-1 range ((R & D Systems). Recombinant human MCP-1) (final concentration of compound: 10^−5 M), and 50 μl of iodinated MCP-1 ([^125 l]-MCP-1 human recombinant Bolton+Hunter labelled (Amersham)) at 0.3 nM in distilled water (final concentration of iodinated MCP-1: 0.1 nM), and 50 μl of CHO-K1-CCR2B cells (obtained from Euroscreen Brussels, Belgium) at 6×10^5 cells/ml (final concentration in the reaction buffer: […]). The filters were saturated beforehand with 100 μl of PEI at a final concentration of 0.0125% in PBS, for 72 h at 4° C., and the PEI was removed by filtration. The content of the wells was filtered and washed twice with the reaction buffer, and the filters were left to dry overnight. The following day, 20 μl/well of “Wallac Optiphase Super Mix” scintillant were dispensed. The filters were impregnated for 1 to 2 h and then counted with Trilux Iodine 125 for 1 min.
Reaction buffer=PBS buffer, […], 1 mM CaCl2, 5 mM MgCl2, 0.5% fatty acid-free BSA, adjusted to pH 7.4.

Compound | IC50 (human CCR2b receptor) [µM] | melting point [°C]
COc1ccc(C2CCCCC2)cc1-c1csc(NC(=O)N2CCN(C3CCOCC3)CC2)n1 [Compound No 11, 4-(tetrahydropyran-4-yl)piperazine-1-carboxylic acid [4-(5-cyclohexyl-2-methoxyphenyl)thiazol-2-yl]amide] | 0.02 | 226
COc1ccc(C2CCCCC2)cc1-c1csc(NC(=O)N2CCN(C[C@@H]3CCCN(CCCCC(=O)O)C3)CC2)n1 [compound 9, 5-((R)-3-{4-[4-(5-cyclohexyl-2-methoxyphenyl)thiazol-2-ylcarbamoyl]piperazin-1-ylmethyl}piperidin-1-yl)pentanoic acid] | 0.004 | 153
COc1ccc(C2CCCCC2)cc1-c1csc(NC(=O)N2CCN(C3CCCCC3)CC2)n1 [compound 10, 4-cyclohexylpiperazine-1-carboxylic acid [4-(5-cyclohexyl-2-methoxyphenyl)thiazol-2-yl]amide] | 0.053 | 110
COc1ccc(C2CCCCC2)cc1-c1csc(NC(=O)N2CCN(C(=O)[C@@H]3CCCN(C4CC4)C3)CC2)n1 [compound 22, 4-((R)-1-cyclopropylpiperidine-3-carbonyl)piperazine-1-carboxylic acid [4-(5-cyclohexyl-2-methoxyphenyl)thiazol-2-yl]amide] | 0.004 | –
CCCCc1ccc(OCC)c(-c2csc(NC(=O)N3CCN(C[C@@H]4CCCN(C5CC5)C4)CC3)n2)c1 [compound 23, 4-((S)-1-cyclopropylpiperidin-3-ylmethyl)piperazine-1-carboxylic acid [4-(5-butyl-2-ethoxyphenyl)thiazol-2-yl]amide] | 0.008 | 86
COc1ccc(C2CCCCC2)cc1-c1csc(NC(=O)N2CCN(C[C@@H]3CCCN(S(=O)(=O)C4CC4)C3)CC2)n1 [compound 29, 4-((S)-1-cyclopropanesulphonylpiperidin-3-ylmethyl)piperazine-1-carboxylic acid [4-(5-cyclohexyl-2-methoxyphenyl)thiazol-2-yl]amide] | 0.05 | 114
COc1ccc(C2CCCCC2)cc1-c1csc(NC(=O)N2CCN(C3CCS(=O)(=O)CC3)CC2)n1 [compound 33, 4-(1,1-dioxohexahydro-1λ^6-thiopyran-4-yl)piperazine-1-carboxylic acid [4-(5-cyclohexyl-2-methoxyphenyl)thiazol-2-yl]amide] | 0.02 | 204
COc1ccc(C2CCCCC2)cc1-c1csc(NC(=O)N2CCN(CC3CCOC(C)(C)C3)CC2)n1 (stereo not shown) [compound 40, 4-(2,2-dimethyltetrahydropyran-4-ylmethyl)piperazine-1-carboxylic acid [4-(5-cyclohexyl-2-methoxyphenyl)thiazol-2-yl]amide] | 0.082 | 98
COc1ccc(C2CCCCC2)cc1-c1csc(NC(=O)N2CCN(C3CCSCC3)CC2)n1 [compound 41, 4-(tetrahydrothiopyran-4-yl)piperazine-1-carboxylic acid [4-(5-cyclohexyl-2-methoxyphenyl)thiazol-2-yl]amide] | 0.039 | 118
COc1ccc(C2CCCCC2)cc1-c1csc(NC(=O)N2CCN(CC3CCCCN3S(=O)(=O)c3cnn(C)c3C)CC2)n1 (stereo not shown) [compound 45, 4-[1-(1,5-dimethyl-1H-pyrazole-4-sulphonyl)piperidin-2-ylmethyl]piperazine-1-carboxylic acid [4-(5-cyclohexyl-2-methoxyphenyl)thiazol-2-yl]amide] | 0.073 | –
hMCP-1: human monocyte chemotactic protein, CC chemokine group, natural agonist of the CCR2b receptor [reference compound] | 0.00057 | –
